In brackets after ≈: the same amount, converted by molar mass.
What was measured:
[1] = Solubility with PEG3350 as co-solvent; type: physicochemical
Description: PEG3350 was used as co-solvent in order to enhance inhibitors solubility and thus eliminate the possibility of aggregates formation. | column: Solubility (μM)

[2] = biological target: T1, human RANKL (Homo sapiens, UniProt O14788); assay: Cross-linking experiments, RANKL trimer formation; type: biochemical; conditions: molar ratio of 1:1 relative to RANKL, BS3 cross-linking
T1 construct: purchased Peprotech
T1 sequence (O14788 143-317 limits assumed): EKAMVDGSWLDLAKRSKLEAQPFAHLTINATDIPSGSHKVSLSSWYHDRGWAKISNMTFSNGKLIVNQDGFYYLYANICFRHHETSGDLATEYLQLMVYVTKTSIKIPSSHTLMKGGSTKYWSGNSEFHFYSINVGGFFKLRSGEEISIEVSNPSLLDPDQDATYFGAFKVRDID
Method: (§1) 100 ng of recombinant human TNF or RANKL (Peprotech) were incubated with the inhibitors for 30 min at room temperature and then subjected to cross-linking, using 4.8 mM BS3 (ThermoFisher Scientific) for 30 min at room temperature. The reaction was stopped by adding 1/10th volume of 1 M Tris-HCl, pH 7.5. Samples were then subjected to SDS-PAGE and western blotting using an anti human-TNF or RANKL antibody (both R&D Systems).
(§2) Human TNF or RANKL was incubated with T8 or T23, chemically cross-linked, and subjected to SDS-PAGE. This was followed by western blotting to detect the various TNF and RANKL multimers. Both inhibitors were used at a molar ratio of 4:1 relative to TNF and 1:1 relative to RANKL. Numbers indicate molecular weights in kDa; NC = non cross-linked control (no inhibitor, no cross-linking); CC = cross-linked control (no inhibitor).

[3] = biological target: T2, TNF (Homo sapiens, UniProt P01375); assay: TNF-induced death assay in L929 cells; type: cell-based; set-up: purchased PeproTech; conditions: 0.25 ng/mL human TNF + 2 μg/mL actinomycin D, approx. 24 h, read-out: L929 IC50 (inhibition of TNF-induced death)
Method: L929 cells were cultured on 96-well plates (3×10^4 cells/well) overnight. Then, 0.25 ng/mL human TNF (PeproTech) and 2 μg/mL actinomycin D (Sigma–Aldrich) were added. TNF with the compounds were pre-incubated for 30 min at room temperature before adding them to cells to assess inhibition. Background death was estimated using an actinomycin D treated-only control. After approximately 24 h, dead cells were cleared away by washing with PBS. The remaining live cells were then fixed with methanol and stained with crystal violet. After solubilization with acetic acid, staining was quantified spectrophotometrically at 570 nm. Cytotoxicity is expressed with respect to the background death control and also relative to the toxicity of compounds. Experiments were repeated three times.
Biological screening of the compounds examined their capacity to block TNF function in a modified TNF bioactivity assay.[91] The basis of this test is the death-inducing function of TNF in the murine fibrosarcoma cell line L929 following sensitization by the transcription inhibitor actinomycin D. Functional potency of the compounds would translate in a significant reduction of TNF-induced death. Using this approach, out of the nine shortlisted small molecules, two compounds (T8 and T23) were selected as follows. […]

[4] = biological target: T2, TNF; assay: Cross-linking experiments, TNF trimer formation; type: biochemical; set-up: purchased PeproTech; conditions: molar ratio of 4:1 relative to TNF, BS3 cross-linking
Method: as §1, §2

[5] = 2.5% v/v PEG3350 as co-solvent, PEG3350 2.5% v/v
[6] = 5% v/v PEG3350 as co-solvent, aqueous with cosolvent or surfactant or cyclodextrin, PEG3350 5% v/v

T2 sequence (P01375 77-233 limits assumed): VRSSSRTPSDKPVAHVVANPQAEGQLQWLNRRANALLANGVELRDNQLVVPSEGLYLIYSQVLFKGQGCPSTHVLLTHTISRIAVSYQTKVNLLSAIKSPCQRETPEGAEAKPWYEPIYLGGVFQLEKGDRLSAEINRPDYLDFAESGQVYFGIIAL

Structure (SMILES) | solubility [1, 5] [µM] | solubility [1, 6] [µM] | solubility ([1]; PEG3350 0% v/v) [µM] | formation of RANKL trimers (cross-linking, western blot) [2] | IC50 [3] [µM] | formation of TNF trimers (cross-linking, western blot) [4]
O=C(NNC(=NS(=O)(=O)c1ccc(-n2nc(C(F)(F)F)cc2-c2cccs2)cc1)N1CCCC1)c1ccc(Cl)cc1 [Compound T8, N-[(4-chlorobenzoyl)amino]-N'-[4-[5-thiophen-2-yl-3-(trifluoromethyl)pyrazol-1-yl]phenyl]sulfonylpyrrolidine-1-carboximidamide] | 32 (≈ 19.9 µg/mL) | 48 (≈ 29.9 µg/mL) | < 1 | obstruct the formation of active TNF and RANKL trimers | 40 ± 2.3 | obstruct the formation of active TNF and RANKL trimers
COc1cc(OC(C)=O)c(-c2cc(OC(C)=O)c(OC)cc2OC(C)=O)cc1OC(C)=O [Compound T23, [4-acetyloxy-2-(2,5-diacetyloxy-4-methoxyphenyl)-5-methoxyphenyl] acetate] | 88 | 117 | 36 | obstruct the formation of active TNF and RANKL trimers | 17 ± 1.2 | obstruct the formation of active TNF and RANKL trimers

Source: article PMC5398486, “Cheminformatics-aided discovery of small-molecule Protein-Protein Interaction (PPI) dual inhibitors of Tumor Necrosis Factor (TNF) and Receptor Activator of NF-κB Ligand (RANKL)” (PLoS Computational Biology, 2017)
